Measured values as given in patent publication US6399574B1 (priority 1997, dated 2002).
Where no end group is shown, it is not given here.

target: NMDA receptor (spermine-stimulated [^3H]MK-801 binding); conditions: not given

Row | Compound | IC50 [nM] | IC50 (μM)
1 | (A^7,10)1-12: Con G derivative, A at 7 and 10, residues 13-17 deleted (GEEELQANQALI; ends and bridges not checked; UniProt P07231 81-97, looked up, variant E7A E10A del13-17) | 300 | 
2 | (A^7,10)1-13: Con G derivative, A at 7 and 10, residues 14-17 deleted (GEEELQANQALIR; ends and bridges not checked; UniProt P07231 81-97, looked up, variant E7A E10A del14-17) | 253 | 
3 | (A^7,10,14)1-14: Con G derivative, A at 7, 10, 14, residues 15-17 deleted (GEEELQANQALIRA; ends and bridges not checked; UniProt P07231 81-97, looked up, variant E7A E10A E14A del15-17) | 232 | 
4 | (A^7,10,14)1-15: Con G derivative, A at 7, 10, 14, residues 16-17 deleted (GEEELQANQALIRAK; ends and bridges not checked; UniProt P07231 81-97, looked up, variant E7A E10A E14A del16-17) | 34 | 
5 | (A^7,10,14)1-16: Con G derivative, A at 7, 10, 14, residue 17 deleted (GEEELQANQALIRAKS; ends and bridges not checked; UniProt P07231 81-97, looked up, variant E7A E10A E14A del17-17) | 37 | 
6 | (A^7,10,14)2-17: Con G derivative, A at 7, 10, 14, residue 1 deleted (EEELQANQALIRAKSN; ends and bridges not checked; UniProt P07231 81-97, looked up, variant del1-1 E7A E10A E14A) |  | inactive
7 | (A^7,10,14)3-17: Con G derivative, A at 7, 10, 14, residues 1-2 deleted (EELQANQALIRAKSN; ends and bridges not checked; UniProt P07231 81-97, looked up, variant del1-2 E7A E10A E14A) |  | inactive
8 | (A^7,10,14)4-17: Con G derivative, A at 7, 10, 14, residues 1-3 deleted (ELQANQALIRAKSN; ends and bridges not checked; UniProt P07231 81-97, looked up, variant del1-3 E7A E10A E14A) |  | inactive
9 | (A^7,10,14)5-17: Con G derivative, A at 7, 10, 14, residues 1-4 deleted (LQANQALIRAKSN; ends and bridges not checked; UniProt P07231 81-97, looked up, variant del1-4 E7A E10A E14A) |  | inactive
10 | (A^7,10,14)6-17: Con G derivative, A at 7, 10, 14, residues 1-5 deleted (QANQALIRAKSN; ends and bridges not checked; UniProt P07231 81-97, looked up, variant del1-5 E7A E10A E14A) |  | inactive
11 | A^7,10,14: Con G derivative, A at positions 7, 10 and 14 (GEEELQANQALIRAKSN; ends and bridges not checked; UniProt P07231 81-97, looked up, variant E7A E10A E14A) | 88 | 
12 | A^7,Y^10: Con G derivative, A at position 7 and Y at position 10 (GEEELQANQYLIREKSN; ends and bridges not checked; UniProt P07231 81-97, looked up, variant E7A E10Y) | 79 | 

test system: not given; conditions: mouse, tissue homogenate

Row | Compound | half-life [min]
13 | CC[C@H](C)[C@H](NC(=O)[C@H](CC(N)=O)NC(=O)[C@H](CCC(=O)O)NC(=O)[C@H](CCCNC(=N)N)NC(=O)[C@H](C)NC(=O)[C@H](CC(C)C)NC(=O)[C@H](CCC(=O)O)NC(=O)[C@H](C)NC(=O)[C@H](C)NC(=O)[C@H](CCSC)NC(=O)[C@H](CCCCN)NC(=O)[C@H](C)NC(=O)[C@@H](NC(=O)[C@H](CCC(=O)O)NC(=O)[C@H](CCC(=O)O)NC(=O)[C@H](CCC(=O)O)NC(=O)CN)C(C)C)C(=O)N[C@@H](C)C(=O)N[C@@H](CCCCN)C(=O)NCC(=O)N[C@H]1CSSC[C@@H](C(=O)N[C@@H](Cc2ccc(O)cc2)C(=O)N2CCC[C@H]2C(=O)O)NC(=O)[C@H](CC(N)=O)NC(=O)[C@H](C(C)C)NC(=O)[C@H](CCCCN)NC1=O [ECon R] | 2.4
